Reference: patent publication US12643871B2, “Aryl formamide compound containing chiral sulfur oxide or salt thereof, preparation method, herbicidal composition and use thereof” (Qingdao Kingagroot Chemical Compound Co., Ltd., priority 2019, dated 2026)

What was measured:
Assay type in all cases: in vivo
Digitaria sanguinalis [1] = test: Comparison experiment (post-emergence) against racemate / S configuration; settings: 30 g/ha, 3-4 weeks after sowing, 4-5 leaf-stage of weed, 25DAA; for pest or weed control at 30 g/ha: Digitaria sanguinalis, post-emergence, 600 h
Leptochloa chinensis = test: as above; settings: 60 g/ha; 3-4 weeks after sowing, 4-5 leaf-stage of weed, 25DAA
Excerpt: (§1) The above growth control rates are fresh weight control rates.
(§2) Experiment on weeding effect in post-emergence stage: monocotyledonous and dicotyledonous weed seeds (Descurainia sophia, Capsella bursa-pastoris, Galium aparine, Stellaria media, Lithospermum arvense, Rorippa indica, Alopecurus aequalis, Beckmannia syzigachne, Sclerochloa dura, Phleum paniculatum, Bromus japonicus, Aegilops tauschii, Phalaris arundinacea, Amaranthus retroflexus, Chenopodiaceae, Commelina communis, Sonchus arvensis, convolvulus arvensis, Cirsium setosum, Solanum nigrum, Acalypha australis, Digitaria sanguinalis, Echinochloa crusgalli, Setaria viridis, Setaria glauca, Leptochloa chinensis, Monochoria vaginalis, Sagittaria trifolia, Scirpus juncoides, Cyperus rotundus, Cyperus iria, Cyperus difformis, Fimbristylis, Portulaca oleracea, Xanthium sibiricum, Pharbitis nil) and major crop seeds (wheat, corn, rice, soybean, cotton, oilseed rape, millet, sorghum, potato, sesame, ricinus) were placed in plastic pots filled with soil, then covered with 0.5-2 cm of soil, allowed to grow in a good greenhouse environment. […] The tested compounds of the present invention were respectively dissolved in acetone, then added with Tween 80 and 1.5 liter/ha of emulsifiable concentrate of methyl oleate as synergist, diluted with a certain amount of water to obtain a solution with a certain concentration, and sprayed with a spray tower onto the plants. […]
(§3) If there is no clear marker, the post-seedling test conditions are the same as above, and the experimental results are shown in Tables 4-7.

Green Setaria viridis = test: as above; settings: 60 g/ha; 3-4 weeks after sowing, 4-5 leaf-stage of weed, 25DAA
Excerpt: as §1, §2, §3

Abutilon theophrasti [2] = test: as above; settings: 30 g/ha; 3-4 weeks after sowing, 4-5 leaf-stage of weed, 25DAA
Excerpt: as §1, §2, §3

[3] = tested on: key weeds such as Digitaria sanguinalis, Leptochloa chinensis; test: Comparison experiment (post-emergence, Tables 4-7), herbicidal activity on weeds not listed separately; settings: dose of 125, 60, 30, 15 g/ha
Method in brief: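 Compounds are applied post-emergence by spray tower to plants at the 2 leaf stage, at rates from 15 to 500 g/ha with a methyl oleate synergist. Control is expressed on fresh weight, counted after 15 days in the greenhouse and averaged across three repetitions.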

Setaria viridis = test: Weeding effect in post-emergence stage; settings: 250 g/ha; 2 leaf stage; 15 days after application; fresh weight control rate
Method in brief: (§4)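 Greenhouse pot-grown weeds were sprayed at the 2-leaf stage, 2 weeks after sowing, with compound in acetone/Tween 80 plus 1.5 L/ha methyl oleate EC, at 500, 250, 125, 60, 30 or 15 g/ha. Fresh-weight growth control was scored 15 days later on a 0–5 scale, mean of three repeats.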

Amaranthus retroflexus = test: Weeding effect in post-emergence stage; settings: 250 g/ha; 2 leaf stage; 15 days after application; fresh weight control rate
Method in brief: as §4

Digitaria sanguinalis [4] = test: Weeding effect in post-emergence stage; settings: 250 g/ha; 2 leaf stage; 15 days after application; fresh weight control rate
Method in brief: as §4

Echinochloa crusgali = test: Weeding effect in post-emergence stage; settings: 250 g/ha; 2 leaf stage; 15 days after application; fresh weight control rate
Method in brief: as §4

Abutilon theophrasti [5] = test: Weeding effect in post-emergence stage; settings: 250 g/ha; 2 leaf stage; 15 days after application; fresh weight control rate
Method in brief: as §4

rice and other crops = test: Comparison experiment (post-emergence, Tables 4-7), crop safety; settings: dose of 125, 60, 30, 15 g/ha
Excerpt: as §1
Experiment on weeding effect in post-emergence stage: monocotyledonous and dicotyledonous weed seeds (Descurainia sophia, Capsella bursa-pastoris, Galium aparine, Stellaria media, Lithospermum arvense, Rorippa indica, Alopecurus aequalis, Beckmannia syzigachne, Sclerochloa dura, Phleum paniculatum, Bromus japonicus, Aegilops tauschii, Phalaris arundinacea, Amaranthus retroflexus, Chenopodiaceae, Commelina communis, Sonchus arvensis, convolvulus arvensis, Cirsium setosum, Solanum nigrum, Acalypha australis, Digitaria sanguinalis, Echinochloa crusgalli, Setaria viridis, Setaria glauca, Leptochloa chinensis, Monochoria vaginalis, Sagittaria trifolia, Scirpus juncoides, Cyperus rotundus, Cyperus iria, Cyperus difformis, Fimbristylis, Portulaca oleracea, Xanthium sibiricum, Pharbitis nil) and major crop seeds (wheat, corn, rice, soybean, cotton, oilseed rape, millet, sorghum, potato, sesame, ricinus) were placed in plastic pots filled with soil, then covered with 0.5-2 cm of soil, allowed to grow in a good greenhouse environment. After 2 weeks of sowing, the test plants were treated in the 2 leaf stage. The tested compounds of the present invention were respectively dissolved in acetone, then added with Tween 80 and 1.5 liter/ha of emulsifiable concentrate of methyl oleate as synergist, diluted with a certain amount of water to obtain a solution with a certain concentration, and sprayed with a spray tower onto the plants. After the application, the plants were cultured for 15 days in the greenhouse, and then the experimental results of the weeding were counted. The doses of the used compounds were 500, 250, 125, 60, 30, 15 g/ha, and the averages were obtained by repeating for three times.
as §3

Row | Structure (SMILES) | pest or weed control at 30 g/ha (Digitaria sanguinalis [1]) [%] | Results of comparison experiment, Leptochloa chinensis (60 g/ha) (Leptochloa chinensis) [%] | Results of comparison experiment, Green Setaria viridis (60 g/ha) (Green Setaria viridis) [%] | Results of comparison experiment, Abutilon theophrasti (30 g/ha) (Abutilon theophrasti [2]) [%] | Results of comparison experiment, Digitaria sanguinalis (30 g/ha) (Digitaria sanguinalis [1]) [%] | activity to key weeds such as Digitaria sanguinalis, Leptochloa chinensis compared with the corresponding racemate or S configuration [3] | weeding effect in post-emergence stage, activity level (growth control rate), Setaria viridis (Setaria viridis) | weeding effect in post-emergence stage, activity level (growth control rate), Amaranthus retroflexus (Amaranthus retroflexus) | weeding effect in post-emergence stage, activity level (growth control rate), Digitaria sanguinalis (Digitaria sanguinalis [4]) | weeding effect in post-emergence stage, activity level (growth control rate), Echinochloa crusgali (Echinochloa crusgali) | weeding effect in post-emergence stage, activity level (growth control rate), Abutilon theophrasti (Abutilon theophrasti [5]) | safety to rice and other crops compared with the corresponding racemate or S configuration (rice and other crops)
1 | Cc1nnc(NC(=O)c2ccc(C(F)(F)F)c([S+](C)[O-])c2F)o1 (single isomer, unassigned) [Control Compound C] | 0 | 0 | 20 | 60 | – | – | – | – | – | – | – | –
2 | Cc1nnc(NC(=O)c2ccc(C(F)(F)F)c([S+](C)[O-])c2F)o1 (single isomer, unassigned) [Control Compound D] | – | 0 | 10 | 50 | 0 | – | – | – | – | – | – | –
3 | Cc1nnc(NC(=O)c2ccc(C(F)(F)F)c([S@+]([O-])CCO)c2F)o1 [Compound 54] | – | – | – | – | – | better activity | 5 (Level 5: growth control rate is above 85%) | 5 (Level 5: growth control rate is above 85%) | 5 (Level 5: growth control rate is above 85%) | 5 (Level 5: growth control rate is above 85%) | 5 (Level 5: growth control rate is above 85%) | higher safety
4 | CNCC[S@@+]([O-])c1c(C(F)(F)F)ccc(C(=O)Nc2nnc(C)o2)c1F [Compound 67] | – | – | – | – | – | better activity | 5 (Level 5: growth control rate is above 85%) | 5 (Level 5: growth control rate is above 85%) | 5 (Level 5: growth control rate is above 85%) | 5 (Level 5: growth control rate is above 85%) | 5 (Level 5: growth control rate is above 85%) | higher safety
5 | COC[S+]([O-])c1c(C(F)(F)F)ccc(C(=O)Nc2nnc(C)o2)c1F (stereo not shown) [Compound 69] | – | – | – | – | – | better activity | 5 (Level 5: growth control rate is above 85%) | 5 (Level 5: growth control rate is above 85%) | 5 (Level 5: growth control rate is above 85%) | 5 (Level 5: growth control rate is above 85%) | 5 (Level 5: growth control rate is above 85%) | higher safety
6 | CC(C)=NOCC[S@@+]([O-])c1c(C(F)(F)F)ccc(C(=O)Nc2nnc(C)o2)c1F [Compound 166] | – | – | – | – | – | better activity | 5 (Level 5: growth control rate is above 85%) | 5 (Level 5: growth control rate is above 85%) | 5 (Level 5: growth control rate is above 85%) | 5 (Level 5: growth control rate is above 85%) | 5 (Level 5: growth control rate is above 85%) | higher safety
7 | Cc1nnc(NC(=O)c2ccc(C(F)(F)F)c([S@@+]([O-])C[S+](C)[O-])c2F)o1 (stereo partly shown) [Compound 205] | – | – | – | – | – | better activity | 5 (Level 5: growth control rate is above 85%) | 5 (Level 5: growth control rate is above 85%) | 5 (Level 5: growth control rate is above 85%) | 5 (Level 5: growth control rate is above 85%) | 5 (Level 5: growth control rate is above 85%) | higher safety
8 | CCC[S@@+]([O-])c1c(C(F)(F)F)ccc(C(=O)N(c2nnc(C)o2)C(C)OC(=O)OCC)c1F (stereo partly shown) [Compound 261] | – | – | – | – | – | better activity | 5 (Level 5: growth control rate is above 85%) | 5 (Level 5: growth control rate is above 85%) | 5 (Level 5: growth control rate is above 85%) | 5 (Level 5: growth control rate is above 85%) | 5 (Level 5: growth control rate is above 85%) | higher safety
9 | CCC[S@@+]([O-])c1c(C(F)F)ccc(C(=O)Nc2nnc(C)o2)c1Cl [Compound 617] | – | – | – | – | – | better activity | 5 (Level 5: growth control rate is above 85%) | 5 (Level 5: growth control rate is above 85%) | 5 (Level 5: growth control rate is above 85%) | 5 (Level 5: growth control rate is above 85%) | 5 (Level 5: growth control rate is above 85%) | higher safety
10 | Cc1nnc(NC(=O)c2ccc(C(F)F)c([S+](C)[O-])c2F)o1 (stereo not shown) [Control Compound E] | 5 | 10 | 25 | 60 | – | – | – | – | – | – | – | –
